Assays:
Type in all cases: in vivo
Barnyardgrass [1] = assay: Post-emergence herbicidal activity, greenhouse; conditions: 4 WAT
In short: (§1)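 Seedlings or propagule-derived plants aged two to three weeks were sprayed post-emergence by atomizer with the test chemical in a spray holding about 0.4% by weight emulsifier. Plant injury relative to untreated controls was rated at roughly two and four weeks after treatment.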

Canada Thistle [2] = assay: Post-emergence herbicidal activity, greenhouse; conditions: Table I, 4 WAT
In short: as §1

Cocklebur [3] = assay: Post-emergence herbicidal activity, greenhouse; conditions: 4 WAT
In short: as §1

Crabgrass = assay: Post-emergence herbicidal activity, greenhouse; conditions: Table II, 4 WAT
In short: as §1

Downy Brome [4] = assay: Post-emergence herbicidal activity, greenhouse; conditions: 4 WAT
In short: as §1

Hemp Sesbania = assay: Post-emergence herbicidal activity, greenhouse; conditions: Table II, 4 WAT
In short: as §1

Johnsongrass [5] = assay: Post-emergence herbicidal activity, greenhouse; conditions: Table I, 4 WAT
In short: as §1

Lambsquarters [6] = assay: Post-emergence herbicidal activity, greenhouse; conditions: 4 WAT
In short: as §1

Morningglory [7] = assay: Post-emergence herbicidal activity, greenhouse; conditions: 4 WAT
In short: as §1

Panicum Spp = assay: Post-emergence herbicidal activity, greenhouse; conditions: Table II, 4 WAT
In short: as §1

Quackgrass [8] = assay: Post-emergence herbicidal activity, greenhouse; conditions: Table I, 4 WAT
In short: as §1

Rice = assay: Post-emergence herbicidal activity, greenhouse; conditions: Table II, 4 WAT
In short: as §1

Smartweed [9] = assay: Post-emergence herbicidal activity, greenhouse; conditions: 4 WAT
In short: as §1

Sorghum = assay: Post-emergence herbicidal activity, greenhouse; conditions: Table II, 4 WAT
In short: as §1

Soybean = assay: Post-emergence herbicidal activity, greenhouse; conditions: Table II, 4 WAT
In short: as §1

Sugar Beet = assay: Post-emergence herbicidal activity, greenhouse; conditions: Table II, 4 WAT
In short: as §1

Velvetleaf [10] = assay: Post-emergence herbicidal activity, greenhouse; conditions: 4 WAT
In short: as §1

Wheat = assay: Post-emergence herbicidal activity, greenhouse; conditions: Table II, 4 WAT
In short: as §1

Wild Buckwheat = assay: Post-emergence herbicidal activity, greenhouse; conditions: Table II, 4 WAT
In short: as §1

Yellow Nutsedge [11] = assay: Post-emergence herbicidal activity, greenhouse; conditions: Table I, 4 WAT
In short: as §1

Barnyardgrass [12] = assay: Pre-emergent herbicidal activity; conditions: Table III; 11.2 kg/h; 2 WAT
Description: (§2) A good grade of top soil is placed in aluminum pans and compacted to a depth of 0.95 to 1.27 cm. from the top of each pan. A predetermined number of seeds or vegetative propagules of each of several plant species are placed on top of the soil in each pan and then pressed down. Herbicidal compositions prepared as in the previous example are applied by admixture with or incorporation in the top layer of soil.
(§3) In this method, the soil required to cover the seeds and propagules is weighed and admixed with a herbicidal composition containing a known amount of the active ingredient (compound of this invention). The pans are then filled with the admixture and leveled. Watering is carried out by permitting the soil in the pans to absorb moisture through apertures in the pan bottoms. The seed and propagule containing pans are placed on a wet sand bench and maintained for approximately two weeks under ordinary conditions of sunlight and watering. At the end of this period, the number of emerged plants of each species is noted and compared to an untreated control.
(§4) The pre-emergent herbicidal activity index used below is based upon average percent control of each species as follows:
(§5) Plant species in the table are identified by the same code letters used in the previous example.

Canada Thistle [13] = assay: Pre-emergent herbicidal activity; conditions: Table III; 11.2 kg/h; 2 WAT
Description: as §2, §3, §4, §5

Cocklebur [14] = assay: Pre-emergent herbicidal activity; conditions: Table III; 11.2 kg/h; 2 WAT
Description: as §2, §3, §4, §5

Downy Brome [15] = assay: Pre-emergent herbicidal activity; conditions: Table III; 11.2 kg/h; 2 WAT
Description: as §2, §3, §4, §5

Johnsongrass [16] = assay: Pre-emergent herbicidal activity; conditions: Table III; 11.2 kg/h; 2 WAT
Description: as §2, §3, §4, §5

Lambsquarters [17] = assay: Pre-emergent herbicidal activity; conditions: Table III; 11.2 kg/h; 2 WAT
Description: as §2, §3, §4, §5

Morningglory [18] = assay: Pre-emergent herbicidal activity; conditions: Table III; 11.2 kg/h; 2 WAT
Description: as §2, §3, §4, §5

Quackgrass [19] = assay: Pre-emergent herbicidal activity; conditions: Table III; 11.2 kg/h; 2 WAT
Description: as §2, §3, §4, §5

Smartweed [20] = assay: Pre-emergent herbicidal activity; conditions: Table III; 11.2 kg/h; 2 WAT
Description: as §2, §3, §4, §5

Velvetleaf [21] = assay: Pre-emergent herbicidal activity; conditions: Table III; 11.2 kg/h; 2 WAT
Description: as §2, §3, §4, §5

Yellow Nutsedge [22] = assay: Pre-emergent herbicidal activity; conditions: Table III; 11.2 kg/h; 2 WAT
Description: as §2, §3, §4, §5

CCCCCCCCSSN(CC(=O)OC)CP(=O)(Oc1ccccc1)Oc1ccccc1 [II, Glycine, N-[(diphenoxyphosphinyl)methyl]-N-(octyldithio)-, methyl ester]
post-emergence herbicidal activity index (Barnyardgrass [1]; Table I, 5.6 kg/h): 2 (50-74% control) | post-emergence herbicidal activity index (Barnyardgrass [1]; Table I, 11.2 kg/h): 2 (50-74% control) | post-emergence herbicidal activity index (Barnyardgrass [1]; Table II, 0.28 kg/h): 0 (0- 24% control) | post-emergence herbicidal activity index (Barnyardgrass [1]; Table II, 1.12 kg/h): 1 (25-49% control) | post-emergence herbicidal activity index (Barnyardgrass [1]; Table II, 5.6 kg/h): 3 (75-99% control) | post-emergence herbicidal activity index (Canada Thistle [2]; 5.6 kg/h): 0 (0- 24% control) | post-emergence herbicidal activity index (Canada Thistle [2]; 11.2 kg/h): 1 (25-49% control) | post-emergence herbicidal activity index (Cocklebur [3]; Table I, 5.6 kg/h): 4 (100% control) | post-emergence herbicidal activity index (Cocklebur [3]; Table I, 11.2 kg/h): 3 (75-99% control) | post-emergence herbicidal activity index (Cocklebur [3]; Table II, 0.28 kg/h): 0 (0- 24% control) | post-emergence herbicidal activity index (Cocklebur [3]; Table II, 1.12 kg/h): 1 (25-49% control) | post-emergence herbicidal activity index (Cocklebur [3]; Table II, 5.6 kg/h): 3 (75-99% control) | post-emergence herbicidal activity index (Crabgrass; 0.28 kg/h): 0 (0- 24% control) | post-emergence herbicidal activity index (Crabgrass; 1.12 kg/h): 2 (50-74% control) | post-emergence herbicidal activity index (Crabgrass; 5.6 kg/h): 4 (100% control) | post-emergence herbicidal activity index (Downy Brome [4]; Table I, 5.6 kg/h): 2 (50-74% control) | post-emergence herbicidal activity index (Downy Brome [4]; Table I, 11.2 kg/h): 1 (25-49% control) | post-emergence herbicidal activity index (Downy Brome [4]; Table II, 0.28 kg/h): 0 (0- 24% control) | post-emergence herbicidal activity index (Downy Brome [4]; Table II, 1.12 kg/h): 0 (0- 24% control) | post-emergence herbicidal activity index (Downy Brome [4]; Table II, 5.6 kg/h): 2 (50-74% control) | post-emergence herbicidal activity index (Hemp Sesbania; 0.28 kg/h): 0 (0- 24% control) | post-emergence herbicidal activity index (Hemp Sesbania; 1.12 kg/h): 0 (0- 24% control) | post-emergence herbicidal activity index (Hemp Sesbania; 5.6 kg/h): 1 (25-49% control) | post-emergence herbicidal activity index (Johnsongrass [5]; 5.6 kg/h): 3 (75-99% control) | post-emergence herbicidal activity index (Johnsongrass [5]; 11.2 kg/h): 3 (75-99% control) | post-emergence herbicidal activity index (Lambsquarters [6]; Table I, 5.6 kg/h): 3 (75-99% control) | post-emergence herbicidal activity index (Lambsquarters [6]; Table I, 11.2 kg/h): 4 (100% control) | post-emergence herbicidal activity index (Lambsquarters [6]; Table II, 0.28 kg/h): 0 (0- 24% control) | post-emergence herbicidal activity index (Lambsquarters [6]; Table II, 1.12 kg/h): 2 (50-74% control) | post-emergence herbicidal activity index (Lambsquarters [6]; Table II, 5.6 kg/h): 3 (75-99% control) | post-emergence herbicidal activity index (Morningglory [7]; Table I, 5.6 kg/h): 2 (50-74% control) | post-emergence herbicidal activity index (Morningglory [7]; Table I, 11.2 kg/h): 2 (50-74% control) | post-emergence herbicidal activity index (Morningglory [7]; Table II, 0.28 kg/h): 1 (25-49% control) | post-emergence herbicidal activity index (Morningglory [7]; Table II, 1.12 kg/h): 1 (25-49% control) | post-emergence herbicidal activity index (Morningglory [7]; Table II, 5.6 kg/h): 3 (75-99% control) | post-emergence herbicidal activity index (Panicum Spp; 0.28 kg/h): 0 (0- 24% control) | post-emergence herbicidal activity index (Panicum Spp; 1.12 kg/h): 0 (0- 24% control) | post-emergence herbicidal activity index (Panicum Spp; 5.6 kg/h): 3 (75-99% control) | post-emergence herbicidal activity index (Quackgrass [8]; 5.6 kg/h): 3 (75-99% control) | post-emergence herbicidal activity index (Quackgrass [8]; 11.2 kg/h): 1 (25-49% control) | post-emergence herbicidal activity index (Rice; 0.28 kg/h): 0 (0- 24% control) | post-emergence herbicidal activity index (Rice; 1.12 kg/h): 1 (25-49% control) | post-emergence herbicidal activity index (Rice; 5.6 kg/h): 3 (75-99% control) | post-emergence herbicidal activity index (Smartweed [9]; Table I, 5.6 kg/h): 2 (50-74% control) | post-emergence herbicidal activity index (Smartweed [9]; Table I, 11.2 kg/h): 4 (100% control) | post-emergence herbicidal activity index (Smartweed [9]; Table II, 0.28 kg/h): 0 (0- 24% control) | post-emergence herbicidal activity index (Smartweed [9]; Table II, 1.12 kg/h): 1 (25-49% control) | post-emergence herbicidal activity index (Smartweed [9]; Table II, 5.6 kg/h): 2 (50-74% control) | post-emergence herbicidal activity index (Sorghum; 0.28 kg/h): 0 (0- 24% control) | post-emergence herbicidal activity index (Sorghum; 1.12 kg/h): 1 (25-49% control) | post-emergence herbicidal activity index (Sorghum; 5.6 kg/h): 3 (75-99% control) | post-emergence herbicidal activity index (Soybean; 0.28 kg/h): 0 (0- 24% control) | post-emergence herbicidal activity index (Soybean; 1.12 kg/h): 0 (0- 24% control) | post-emergence herbicidal activity index (Soybean; 5.6 kg/h): 2 (50-74% control) | post-emergence herbicidal activity index (Sugar Beet; 0.28 kg/h): 0 (0- 24% control) | post-emergence herbicidal activity index (Sugar Beet; 1.12 kg/h): 0 (0- 24% control) | post-emergence herbicidal activity index (Sugar Beet; 5.6 kg/h): 3 (75-99% control) | post-emergence herbicidal activity index (Velvetleaf [10]; Table I, 5.6 kg/h): 1 (25-49% control) | post-emergence herbicidal activity index (Velvetleaf [10]; Table I, 11.2 kg/h): 3 (75-99% control) | post-emergence herbicidal activity index (Velvetleaf [10]; Table II, 0.28 kg/h): 0 (0- 24% control) | post-emergence herbicidal activity index (Velvetleaf [10]; Table II, 1.12 kg/h): 0 (0- 24% control) | post-emergence herbicidal activity index (Velvetleaf [10]; Table II, 5.6 kg/h): 2 (50-74% control) | post-emergence herbicidal activity index (Wheat; 0.28 kg/h): 0 (0- 24% control) | post-emergence herbicidal activity index (Wheat; 1.12 kg/h): 0 (0- 24% control) | post-emergence herbicidal activity index (Wheat; 5.6 kg/h): 3 (75-99% control) | post-emergence herbicidal activity index (Wild Buckwheat; 0.28 kg/h): 0 (0- 24% control) | post-emergence herbicidal activity index (Wild Buckwheat; 1.12 kg/h): 0 (0- 24% control) | post-emergence herbicidal activity index (Wild Buckwheat; 5.6 kg/h): 3 (75-99% control) | post-emergence herbicidal activity index (Yellow Nutsedge [11]; 5.6 kg/h): 1 (25-49% control) | post-emergence herbicidal activity index (Yellow Nutsedge [11]; 11.2 kg/h): 2 (50-74% control) | pre-emergent herbicidal activity index (Barnyardgrass [12]): 0 (0-24% control) | pre-emergent herbicidal activity index (Canada Thistle [13]): 1 (25-49% control) | pre-emergent herbicidal activity index (Cocklebur [14]): 0 (0-24% control) | pre-emergent herbicidal activity index (Downy Brome [15]): 0 (0-24% control) | pre-emergent herbicidal activity index (Johnsongrass [16]): 2 (50-74% control) | pre-emergent herbicidal activity index (Lambsquarters [17]): 0 (0-24% control) | pre-emergent herbicidal activity index (Morningglory [18]): 0 (0-24% control) | pre-emergent herbicidal activity index (Quackgrass [19]): 0 (0-24% control) | pre-emergent herbicidal activity index (Smartweed [20]): 0 (0-24% control) | pre-emergent herbicidal activity index (Velvetleaf [21]): 0 (0-24% control) | pre-emergent herbicidal activity index (Yellow Nutsedge [22]): 0 (0-24% control)
